Measured values published in patent US11396517B1, “Exo-aza spiro inhibitors of menin-MLL interaction” (Janssen Pharmaceutica NV, priority 2017, dated 2022).
Like-named read-outs stand apart in the source and are kept apart here.

Key:
MOLM14 = assay: Proliferation assay B (spheroid assay) MOLM14; type: cell-based, human; conditions: MOLM14 cells, confluence at day 8, absolute IC50, read-out: (3b) Spheroid assay MOLM14 (IC50(μM)) Assay B
How it was run: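 Leukemia cells grown as spheroids in ultra-low-attachment round-bottom wells with compound at 0.3% DMSO for 8 d at 37 °C. Confluence imaged at day 8 as spheroid size, normalized between DMSO and 1 μM staurosporine controls; absolute IC50 from sigmoidal fit with bounds fixed at 0 and 100%.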

menin = molecular target: T1, menin (Homo sapiens, UniProt O00255, T541A); assay: Menin/MLL homogenous time-resolved fluorescence (HTRF) assay; type: binding; conditions: location 2; read-out: (2) location 2 Menin HTRF assay (IC50 (nM))
T1 construct: Menin (a.a. 1-610-6×his tag)
T1 sequence (O00255 with tags, fused parts or gaps T541A): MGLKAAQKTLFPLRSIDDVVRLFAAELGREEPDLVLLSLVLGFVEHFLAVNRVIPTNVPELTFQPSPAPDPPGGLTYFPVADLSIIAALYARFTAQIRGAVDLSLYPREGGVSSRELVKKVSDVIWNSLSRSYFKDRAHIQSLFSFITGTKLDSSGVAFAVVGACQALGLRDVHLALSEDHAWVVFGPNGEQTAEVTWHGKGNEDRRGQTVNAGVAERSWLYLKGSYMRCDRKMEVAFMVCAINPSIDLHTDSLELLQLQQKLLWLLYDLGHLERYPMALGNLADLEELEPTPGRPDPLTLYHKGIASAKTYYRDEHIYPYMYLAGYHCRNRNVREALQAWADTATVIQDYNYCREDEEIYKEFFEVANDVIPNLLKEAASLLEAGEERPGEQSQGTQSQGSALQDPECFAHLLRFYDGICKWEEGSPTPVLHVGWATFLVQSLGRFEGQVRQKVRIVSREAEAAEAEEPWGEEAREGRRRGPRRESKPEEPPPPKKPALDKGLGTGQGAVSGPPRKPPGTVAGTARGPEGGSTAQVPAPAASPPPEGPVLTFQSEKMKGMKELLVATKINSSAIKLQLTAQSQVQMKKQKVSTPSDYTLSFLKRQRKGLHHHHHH
How it was run: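 Terbium-labeled menin (aa 1-610, His-tagged; […]) preincubated 5 min with compound, then 75 nM FITC-MBM1 peptide for 15 min, ambient, Tris pH 7.5, 0.5% DMSO. HTRF 520/490 ratio; 11-point 3-fold titration; IC50 from % inhibition fit.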

MV-4-11 = assay: Proliferation assay B (spheroid assay) MV-4-11; type: cell-based, human; conditions: MV-4-11 cells, confluence at day 8, absolute IC50, read-out: (3b) Spheroid assay MV-4--11 (IC50(μM)) Assay B
Protocol: 3b) Proliferation Assay B
The anti-proliferative effect of menin/MLL protein/protein interaction inhibitor test compounds was assessed in human leukemia cell lines. The cell lines MV-4-11 and MOLM14 harbor MILL translocations and express the MILL fusion proteins MLL-AF4 and MLL-AF9, respectively, as well as the wildtype protein from the second allele. […] K562 was used as a control cell line containing two MLL wildtype alleles in order to exclude compounds that display general cytotoxic effects.
MV-4-11 and MOLM14 were cultured in RPMI-1640 (Sigma Aldrich) supplemented with 10% fetal bovine serum (HyClone), 2 mM L-glutamine (Sigma Aldrich) and 50 μg/ml gentamycin (Gibco). K562 were propagated in RPMI-1640 (Sigma Aldrich) supplemented with 20% fetal bovine serum (HyClone), 2 mM L-glutamine (Sigma Aldrich) and 50 μg/ml gentamycin (Gibco).
In order to assess the anti-proliferative effects, 1,500 MV-4-11, 300 MOLM14 cells or 750 K562 cells were seeded in 200 μl media per well in 96-well round bottom, ultra-low attachment plates (Costar, catalogue number 7007). Cell seeding numbers were chosen based on growth curves to ensure linear growth throughout the experiment. Test compounds were added at different concentrations and the DMSO content was normalized to 0.3%. Cells were incubated for 8 d at 37° C. and 5% CO2. Spheroid like growth was measured in real-time by live-cell imaging (IncuCyteZOOM, Essenbio, 4× objective) acquiring images at day 8. Confluence (%) as a measure of spheroid size was determined using an integrated analysis tool.
In order to determine the effect of the test compounds over time, the confluence in each well as a measure of spheroid size, was calculated. Confluence […] at the beginning of the experiment (t=0) was used as baseline for the calculation.
Absolute IC50 values were calculated as percent change in confluence as follows:
LC=Low Control: cells treated with 1 μM of the cytotoxic agent staurosporin
HC=High Control: Mean confluence (%) (DMSO treated cells) % Effect=100−(100*(Sample−LC)/(HC−LC))
To determine the IC50 a curve is fitted to the plot of % Effect vs Log 10 compound concentration using a sigmoidal fit with a variable slope and fixing the maximum to 100% and the minimum to 0%.

SMILES | IC50 (MOLM14; Homo sapiens, MOLM-14, 192 h) | IC50 (menin) | IC50 (MV-4-11; Homo sapiens, MV4-11, 192 h) | IC50 (MOLM14) | IC50 (MV-4-11)
CNC(=O)c1ccc(NC2CC3(CCN(c4ncnc5sc(CC(F)(F)F)cc45)C3)C2)cc1C#N (mixture of isomers) [Compound 422] | > 3.75 µM | 34.1 nM | > 3.75 µM |  | 
CN(C)CCNC(=O)c1ccc(NC2CC3(CCN(c4ncnc5sc(CC(F)(F)F)cc45)C3)C2)cc1 (racemic) [Compound 73] | 1.21 µM | 2.5 nM | 0.3 µM |  | 
CN1CCC(c2cc(NC3CC4(CCN(c5ncnc6sc(CC(F)(F)F)cc56)C4)C3)ccc2C#N)CC1 (racemic) [Compound 78] | 0.48 µM | 2.9 nM | 0.33 µM |  | 
CNC(=O)c1ccc(NC2CC3(CCN(c4ncnc5sc(CC(F)(F)F)cc45)C3)C2)c(F)c1 (single isomer, unassigned) [Compound 67] | 0.62 µM | 1 nM | 0.14 µM |  | 
CN(C)CCNC(=O)c1ccc(NC2CC3(CCN(c4ncnc5sc(CC(F)(F)F)cc45)C3)C2)cc1 (single isomer, unassigned) [Compound 75] |  | 1.3 nM | 0.05 µM | 0.46 µM | 
CN1CCC(c2cc(NC3CC4(CCN(c5ncnc6sc(CC(F)(F)F)cc56)C4)C3)ccc2C#N)CC1 (single isomer, unassigned) [Compound 79] | 0.59 µM | 14.2 nM | 0.17 µM |  | 
O=C(NCCO)c1ccc(NC2CC3(CCN(c4ncnc5sc(CC(F)(F)F)cc45)C3)C2)cc1 (single isomer, unassigned) [Compound 84] | 0.56 µM | 2.3 nM | 0.06 µM |  | 
CNC(=O)c1ccc(NC2CC3(CCN(c4ncnc5sc(CC(F)(F)F)cc45)C3)C2)c(F)c1F (single isomer, unassigned) [Compound 226] | 2.83 µM | 7.8 nM | 0.43 µM |  | 
CN1CC=C(c2cc(NC3CC4(CCN(c5ncnc6sc(CC(F)(F)F)cc56)C4)C3)ccc2C(C)(C#N)C#N)CC1 (single isomer, unassigned) [Compound 247] |  | 30.2 nM |  | 0.71 µM | 0.97 µM
CN(C)CCNC(=O)c1ccc(NC2CC3(CCN(c4ncnc5sc(CC(F)(F)F)cc45)C3)C2)nc1 (single isomer, unassigned) [Compound 254] |  | 2.8 nM | 0.17 µM | 1.5 µM | 
O=c1[nH]c2cc(N[C@@H]3CCC4(C3)CN(c3ncnc5sc(CC(F)(F)F)cc35)C4)ccc2o1 (single isomer, unassigned) [Compound 286] | > 3.75 µM | 23.7 nM | 2.48 µM |  | 
O=c1[nH]c2cc(N[C@H]3CCC4(C3)CN(c3ncnc5sc(CC(F)(F)F)cc35)C4)ccc2o1 (single isomer, unassigned) [Compound 287] | > 3.75 µM | 22.8 nM | 3.37 µM |  | 
O=C(c1ccc(NC2CC3(CCN(c4ncnc5sc(CC(F)(F)F)cc45)C3)C2)cc1)N1CCOCC1 (single isomer, unassigned) [Compound 334] |  | 256 nM |  | > 3.75 µM | > 3.75 µM
O=C(c1ccc(NC2CC3(CCN(c4ncnc5sc(CC(F)(F)F)cc45)C3)C2)cc1)N1CCOCC1 (single isomer, unassigned) [Compound 335] |  | 5.2 nM |  | 1.55 µM | 0.46 µM
CS(=O)(=O)NC(=O)c1ccc(NC2CC3(CCN(c4ncnc5sc(CC(F)(F)F)cc45)C3)C2)cc1 (single isomer, unassigned) [Compound 361] |  | 61.7 nM |  | > 3.75 µM | > 3.75 µM
CS(=O)(=O)NC(=O)c1ccc(NC2CC3(CCN(c4ncnc5sc(CC(F)(F)F)cc45)C3)C2)cc1 (single isomer, unassigned) [Compound 362] | > 3.75 µM | 836 nM | > 3.75 µM |  | 
COC[C@@H]1CN(C(=O)c2ccc(NC3CC4(CCN(c5ncnc6sc(CC(F)(F)F)cc56)C4)C3)cc2)CCO1 (single isomer, unassigned) [Compound 410] | > 3.75 µM | 68.7 nM | > 3.75 µM |  | 
O=C(c1ccc(NC2CC3(CCN(c4ncnc5sc(CC(F)(F)F)cc45)C3)C2)cc1)N1CC2(COC2)C1 (single isomer, unassigned) [Compound 413] | > 3.75 µM | 2290 nM | > 3.75 µM |  | 
Cn1c(=O)[nH]c2ccc(CN[C@@H]3CCC4(C3)CN(c3ncnc5sc(CC(F)(F)F)cc35)C4)cc21 (stereo in doubt) [Compound 110] | 1.91 µM | 5.5 nM | 0.62 µM |  | 
Cn1c(=O)[nH]c2ccc(CN[C@H]3CCC4(C3)CN(c3ncnc5sc(CC(F)(F)F)cc35)C4)cc21 (stereo in doubt) [Compound 111] | 3.06 µM | 65 nM | 0.62 µM |  | 

More lines, now with the values ahead:

IC50 (MOLM14; Homo sapiens, MOLM-14, 192 h) | IC50 (menin) | IC50 (MV-4-11; Homo sapiens, MV4-11, 192 h) | IC50 (MOLM14) | IC50 (MV-4-11) | SMILES
> 3.75 µM | 16.4 nM | > 3.75 µM |  |  | Cc1nc(N2CCC3(CC(Nc4ccc(CC#N)cc4)C3)C2)c2cc(CC(F)(F)F)sc2n1 (mixture of isomers) [Compound 404]
> 3.75 µM | 97.3 nM | 2.43 µM |  |  | CC(C)(NC1CCC2(C1)CN(c1ncnc3sc(CC(F)(F)F)cc13)C2)c1ccccc1 (racemic) [Compound 276]
0.5 µM | 2.8 nM | 0.23 µM |  |  | CNC(=O)c1ccc(NC2CC3(CCN(c4ncnc5sc(CC(F)(F)F)cc45)C3)C2)nc1 (single isomer, unassigned) [Compound 72]
> 3.75 µM | 34.7 nM | 2.47 µM |  |  | FC(F)(F)Cc1cc2c(N3CCC4(CC(Nc5cccnc5)C4)C3)ncnc2s1 (single isomer, unassigned) [Compound 153]
0.81 µM | 15.1 nM | 0.69 µM |  |  | Cc1nc(N2CCC3(CC(NCc4ccccc4)C3)C2)c2cc(CC(F)(F)F)sc2n1 (single isomer, unassigned) [Compound 262]
> 3.75 µM | 98.2 nM | > 3.75 µM |  |  | COc1nc(N2CCC3(CC(Nc4ccccc4)C3)C2)c2cc(CC(F)(F)F)sc2n1 (single isomer, unassigned) [Compound 267]
2.32 µM | 30.6 nM | 2.06 µM |  |  | COc1nc(N2CC3(CC[C@H](NCc4cccc(-c5cc[nH]n5)c4)C3)C2)c2cc(CC(F)(F)F)sc2n1 (stereo in doubt) [Compound 116]
1.6 µM | 32.7 nM | 0.98 µM |  |  | CNc1nc(N2CC3(CC[C@@H](NCc4cccc(-c5cc[nH]n5)c4)C3)C2)c2cc(CC(F)(F)F)sc2n1 (stereo in doubt) [Compound 121]
1.21 µM | 49.3 nM | 0.44 µM |  |  | CNc1nc(N2CC3(CC[C@H](NCc4cccc(-c5cc[nH]n5)c4)C3)C2)c2cc(CC(F)(F)F)sc2n1 (stereo in doubt) [Compound 122]
